# In US20080175927A1, “METHOD FOR PREVENTING PLANT DISEASES” (priority 2005, published 2008):
# Marks after values point to notes of the source that are not given here.
# Legend:
# damping-off of cucumber = test: Paper disk method, growth inhibition by TLC-purified berberine and derivatives; format: cell-based, Pythium ultimum; set-up: key: ++: strong inhibition; +: moderate inhibition; −: no inhibition; conditions: purified from TLC
# Text: (§1) To confirm antimicrobial activity of berberine and derivative thereof, we collected TLC bands of berberine and derivative thereof and investigated antimicrobial activity of berberine and derivative thereof against known plant pathogens using paper disk method (Ericsson, H., Hogman, C & Wickman. K. 1954, Scandinavian Journal of Clinical Laboratory Investigation 6, Suppl. 11:21-26). […] Therefore, the result of the aforementioned HPLC analysis, ^1H NMR analysis and antimicrobial activity, the active antimicrobial compound exisisting in the extract of Coptis Rhizoma, Phellodendron genus plant, Sanguniaria canadensis, and Chelidonuum majus var. asiaticum was identified as berberine or derivatives thereof.
# glomellera cingurata = test: as above; format: cell-based; set-up: key: ++: strong inhibition; +: moderate inhibition; −: no inhibition; conditions: purified from TLC
# Text: as §1
# [1] = test system: Sphaerotheca aphanis var. aphanis; test: Preventive test against strawberry powdery mildew, disease incidence rate; format: in vivo; conditions: for PR (prevention rate): 7 days after treatment; for DIR B (disease incident rate 7 days after treatment), I: replicate I; for DIR B (disease incident rate 7 days after treatment), II: replicate II; for DIR B (disease incident rate 7 days after treatment), III: replicate III
# Protocol: To measure prevention effect against powdery mildew of extract of Coptis Rhizoma, Phellodendron amurense, Sanguniaria canadensis and Chelidonuum majus var. asiaticum and berberine and its derivative, we performed a preventive test agaist strawberry powdery mildew resulted from infection of Sphaerotheca aphanis var. aphanis using the standard extract obtained by Example 1 or berberine and derivative thereof. The above extract (30 mL) obtained from 10 g of fresh plant materials was dissolved in 200 μg/ml of Tween 20 solution. Final concentration of berberine and derivatives thereof was 400 μg/ml. Negative control was prepared by adding 250 μg/ml of Tween 20 in distilled water. As a positive control reagent, 30% solution of Rifzol wettable powder (Rifzol W P, Aventis Corp Science, Korea) is used and the Rifzol solution was diluted 1:4000 and treated with amount of 75 μg/ml which is common packing concentration.
# In house condition of sandy-loamy soil, disease incidence rate was determined 7 days after treatment of the above mentioned reagents compared to one of non-treatment control and the test was repeated 3 times by randomized Block Design.
# Before treatment of the reagents, the disease incidence rate of strawberry powdery mildew was 34.1%. The disease incidence rate is defined as percentage of disease developed plants among total investigated plants.
# We investigated preventive effects of standard forms of berberine chloride, berberine iodide and berberine bromide and the standard extract obtained by Example 1 against strawberry powdery mildew at various concentrations according to the method of Example 4. […] When the freeze-dried standard extract obtained by Example 1 was used at concentration of at least 1 μg/ml or preferably 10 μg/ml, it prevented strawberry powdery mildew resulted from an infection of Sphaerotheca aphanis var. aphanis. From the above effect, the present inventors confirmed that the standard extract could substitute for synthetic chemical pesticides.
# [2] = test system: gray mold rot of strawberry; test: Paper disk method, growth inhibition by TLC-purified berberine and derivatives; format: cell-based, Botrytis cinerea; set-up: key: ++: strong inhibition; +: moderate inhibition; −: no inhibition; conditions: purified from TLC
# Text: as §1
# [3] = extracts 30 mL from 10 g plant, berberine salts 400 μg/ml, Rifzol 75 μg/ml
# [4] = mean of I-III, extracts 30 mL from 10 g plant, berberine salts 400 μg/ml, Rifzol 75 μg/ml, negative control 19.0
Compound,"Growth inhibition, damping-off of cucumber (damping-off of cucumber)","Growth inhibition, glomellera cingurata (glomellera cingurata)",PR (prevention rate) ([1]; 1 μg/ml) [%],"DIR B (disease incident rate 7 days after treatment), MV (mean value) ([1]; 1 μg/ml, control 35.3) [%]","DIR B (disease incident rate 7 days after treatment), I ([1]; 1 μg/ml) [%]","DIR B (disease incident rate 7 days after treatment), II ([1]; 1 μg/ml) [%]","DIR B (disease incident rate 7 days after treatment), III ([1]; 1 μg/ml) [%]",PR (prevention rate) ([1]; 10 μg/ml) [%],"DIR B (disease incident rate 7 days after treatment), MV (mean value) ([1]; 10 μg/ml, control 35.3) [%]","DIR B (disease incident rate 7 days after treatment), I ([1]; 10 μg/ml) [%]","DIR B (disease incident rate 7 days after treatment), II ([1]; 10 μg/ml) [%]","DIR B (disease incident rate 7 days after treatment), III ([1]; 10 μg/ml) [%]",PR (prevention rate) ([1]; 100 μg/ml) [%],"DIR B (disease incident rate 7 days after treatment), MV (mean value) ([1]; 100 μg/ml, control 35.3) [%]","DIR B (disease incident rate 7 days after treatment), I ([1]; 100 μg/ml) [%]","DIR B (disease incident rate 7 days after treatment), II ([1]; 100 μg/ml) [%]","DIR B (disease incident rate 7 days after treatment), III ([1]; 100 μg/ml) [%]",PR (prevention rate) ([1]; 300 μg/ml) [%],"DIR B (disease incident rate 7 days after treatment), MV (mean value) ([1]; 300 μg/ml, control 35.3) [%]","DIR B (disease incident rate 7 days after treatment), I ([1]; 300 μg/ml) [%]",further results
COc1ccc2cc3[n+](cc2c1OC)CCc1cc2c(cc1-3)OCO2.[I-] [berberine iodide],+,+,9.9,31.8,30.2,29.5,35.8,35.4,22.8,25.8,23.1,19.6,73.1,9.5,10.2,8.9,9.3,78.8,7.5,6.2,"DIR B (disease incident rate 7 days after treatment), II ([1]; 300 μg/ml): 7.9%; DIR B (disease incident rate 7 days after treatment), III ([1]; 300 μg/ml): 8.4%; PR (prevention rate) ([1]; 1000 μg/ml): 82.2%; DIR B (disease incident rate 7 days after treatment), MV (mean value) ([1]; 1000 μg/ml, control 35.3): 6.3%; DIR B (disease incident rate 7 days after treatment), I ([1]; 1000 μg/ml): 4.3%; DIR B (disease incident rate 7 days after treatment), II ([1]; 1000 μg/ml): 9.3%; DIR B (disease incident rate 7 days after treatment), III ([1]; 1000 μg/ml): 5.2%; PR (prevention rate) [1, 3]: 63.2%; DIR B (disease incident rate 7 days after treatment), MV (mean value) [1, 4]: 7.0%; DIR B (disease incident rate 7 days after treatment), I [1, 3]: 7.1%; DIR B (disease incident rate 7 days after treatment), II [1, 3]: 6.6%; DIR B (disease incident rate 7 days after treatment), III [1, 3]: 6.6%; Growth inhibition, gray mold rot of strawberry [2]: +"
"COc1ccc2cc3[n+](cc2c1OC)CCc1cc2c(cc1-3)OCO2.[Br-] [berberine bromine, berberine bromide]",+,+,12.5,30.9,29.6,27.6,35.4,47.3,18.6,13.5,17.6,24.8,61.5,13.6,13.2,11.7,15.8,71.7,10.0,8.9,"DIR B (disease incident rate 7 days after treatment), II ([1]; 300 μg/ml): 12.9%; DIR B (disease incident rate 7 days after treatment), III ([1]; 300 μg/ml): 8.3%; PR (prevention rate) ([1]; 1000 μg/ml): 78.8%; DIR B (disease incident rate 7 days after treatment), MV (mean value) ([1]; 1000 μg/ml, control 35.3): 7.5%; DIR B (disease incident rate 7 days after treatment), I ([1]; 1000 μg/ml): 5.9%; DIR B (disease incident rate 7 days after treatment), II ([1]; 1000 μg/ml): 9.4%; DIR B (disease incident rate 7 days after treatment), III ([1]; 1000 μg/ml): 7.2%; PR (prevention rate) [1, 3]: 66.8%; DIR B (disease incident rate 7 days after treatment), MV (mean value) [1, 4]: 6.3%; DIR B (disease incident rate 7 days after treatment), I [1, 3]: 5.2%; DIR B (disease incident rate 7 days after treatment), II [1, 3]: 6.1%; DIR B (disease incident rate 7 days after treatment), III [1, 3]: 6.1%; Growth inhibition, gray mold rot of strawberry [2]: +"
COc1ccc2cc3[n+](cc2c1OC)CCc1cc2c(cc1-3)OCO2 [berberine chloride],++,++,12.2,31.0,30.2,30.8,32.1,38.2,21.8,23.4,22.1,19.9,73.7,9.3,8.2,7.7,12.1,77.3,8.0,5.2,"DIR B (disease incident rate 7 days after treatment), II ([1]; 300 μg/ml): 8.5%; DIR B (disease incident rate 7 days after treatment), III ([1]; 300 μg/ml): 10.3%; PR (prevention rate) ([1]; 1000 μg/ml): 84.7%; DIR B (disease incident rate 7 days after treatment), MV (mean value) ([1]; 1000 μg/ml, control 35.3): 5.4%; DIR B (disease incident rate 7 days after treatment), I ([1]; 1000 μg/ml): 3.4%; DIR B (disease incident rate 7 days after treatment), II ([1]; 1000 μg/ml): 8.7%; DIR B (disease incident rate 7 days after treatment), III ([1]; 1000 μg/ml): 4.2%; PR (prevention rate) [1, 3]: 69.5^c %; DIR B (disease incident rate 7 days after treatment), MV (mean value) [1, 4]: 5.8%; DIR B (disease incident rate 7 days after treatment), I [1, 3]: 5.9%; DIR B (disease incident rate 7 days after treatment), II [1, 3]: 5.1%; DIR B (disease incident rate 7 days after treatment), III [1, 3]: 5.1%; Growth inhibition, gray mold rot of strawberry [2]: +"
